Our source for the Time-dependent values is patent publication US20080248548A1, “MODULATION OF PROTEIN FUNCTIONALITIES” (priority 2007, published 2008).

In the assay the target is T1, p38 MAP kinase (Homo sapiens, UniProt Q16539).
T1 construct: made in house; host or cells: E. coli
Put plainly: P38 MAP kinase binding assay (competition with fluorescent probe SKF 86002). The following applies: inhibition assigned as time-dependent if the IC50 values decrease with the reaction time (more than two-fold in four hours). On the procedure: Thus, the ability of a small molecule to block fluoroprobe binding provides an experimental readout of binding to the switch control pocket. […] The reaction was initiated by addition of the enzyme. […] By comparison of rfu (relative fluorescence unit) values with that of a control (in the absence of small molecule modulators), the percentage of inhibition at each concentration of the small molecules were calculated. IC50 values for the small molecule modulators were calculated from the % inhibition values obtained at a range of concentrations of the small molecule modulators using Prism. When time-dependent inhibition was assessed, the plate was read at multiple reaction times such as 0.5, 1, 2, 3, 4 and 6 hours. The IC50 values were calculated at each time point. An inhibition was assigned as time-dependent if the IC50 values decrease with the reaction time (more than two-fold in four hours).

T1 sequence (Q16539 whole entry): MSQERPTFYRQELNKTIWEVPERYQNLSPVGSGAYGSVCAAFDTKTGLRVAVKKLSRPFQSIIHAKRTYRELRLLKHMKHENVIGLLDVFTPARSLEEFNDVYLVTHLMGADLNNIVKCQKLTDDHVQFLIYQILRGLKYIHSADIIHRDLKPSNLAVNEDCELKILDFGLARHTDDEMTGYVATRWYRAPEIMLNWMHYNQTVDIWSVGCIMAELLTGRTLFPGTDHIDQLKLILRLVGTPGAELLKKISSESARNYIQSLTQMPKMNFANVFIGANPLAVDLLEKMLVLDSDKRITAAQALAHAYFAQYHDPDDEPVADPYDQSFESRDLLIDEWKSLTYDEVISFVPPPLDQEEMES

As to `CC(C)(C)c1cc(NC(=O)Nc2cccc3ccccc23)n(-c2cccc(CC(=O)N3CCOCC3)c2)n1` [Example 21, 1-{3-tert-butyl-1-[3-(2-morpholino-2-oxoethyl)phenyl)-1H-pyrazol-5-yl}-3-(naphthalene-1-yl)urea], the Time-dependent entry is “Yes”.
`CC1(C(=O)O)CC2(C)CC(C)(C1)C(=O)N(Cc1cccc(-n3nc(C(C)(C)C)cc3NC(=O)Nc3ccc(Cl)cc3)c1)C2=O` (stereo not shown) [Example 12]: the Time-dependent result is recorded as “No”.
The same measure for `CC(C)(C)c1cc(NC(=O)Nc2cccc3ccccc23)n(-c2ccc(CN)cc2)n1` [Example 45, 1-{3-tert-butyl-1-[4-(aminomethyl)phenyl]-1H-pyrazol-5-yl}-3-(naphthalen-1-yl)urea]: “No”; for `CC1(C(=O)O)CC2(C)CC(C)(C1)C(=O)N(Cc1cccc(-n3nc(C(C)(C)C)cc3NC(=O)Nc3cccc4ccccc34)c1)C2=O` (stereo not shown) [Example 11]: “No”.
